In publication PMC9632963, “Preclinical characterization and phase I clinical trial of CT053PTSA targets MET, AXL, and VEGFR2 in patients with advanced solid tumors” (Frontiers in Immunology, 2022):
Read-outs that look alike come from different tables or passages of the source.

How the values were obtained:
[1] = target: LnyA (Homo sapiens, UniProt P07948); experiment: Kinase inhibition assay (LANCE or HTRF); type: biochemical; conditions: ATP at Km
Protocol: (§1) The IC50 values were determined by measuring phosphorylation of peptide substrate poly at ATP concentrations at the Km.

[2] = system: HUVECs; experiment: Endothelial cell tubule formation assay, HGF-induced; type: cell-based; conditions: Homo sapiens, HUVEC, HGF 45 ng/ml, 8 hours
Excerpt: Then, after staining with Calcein AM (ThermoFisher, CA, USA), images of tubule formation were captured, and the total tube area was quantified with ImageXpress HCS (Molecular Devices, CA, USA).

[3] = system: HS746T; experiment: Cell proliferation assay (CellTiter-Glo, 72 hours); type: cell-based; conditions: Homo sapiens, read-out: IC50 anti-proliferative
Protocol: Human gastric tumor cell lines with high MET expression levels, namely, the GTL-16, MKN45, SNU638, Hs746T, SNU-620, and SNU-5 cell lines, were used in the assay. These cell lines were obtained from American Type Culture Collection (ATCC), Japanese Collection of Research Bioresources (JCRB), Shanghai Institutes of Biological Sciences, CAS (SIBS), Korean Cell Line Bank (KCLB) or National Institutes of Health (NIH). […] Cell viability was measured after 72 hours using a CellTiter-Glo Luminescent Cell Viability Assay Kit (Promega, WI, USA) according to the manufacturer’s instructions.

[4] = target: VEGFR2 (Homo sapiens, UniProt P35968); experiment: Cellular kinase phosphorylation assay (sandwich ELISA), HUVECs, VEGF-A stimulated; type: cell-based; parameters: endogenous in cells; host or cells: HUVEC
Sequence of VEGFR2 (P35968 20-1356): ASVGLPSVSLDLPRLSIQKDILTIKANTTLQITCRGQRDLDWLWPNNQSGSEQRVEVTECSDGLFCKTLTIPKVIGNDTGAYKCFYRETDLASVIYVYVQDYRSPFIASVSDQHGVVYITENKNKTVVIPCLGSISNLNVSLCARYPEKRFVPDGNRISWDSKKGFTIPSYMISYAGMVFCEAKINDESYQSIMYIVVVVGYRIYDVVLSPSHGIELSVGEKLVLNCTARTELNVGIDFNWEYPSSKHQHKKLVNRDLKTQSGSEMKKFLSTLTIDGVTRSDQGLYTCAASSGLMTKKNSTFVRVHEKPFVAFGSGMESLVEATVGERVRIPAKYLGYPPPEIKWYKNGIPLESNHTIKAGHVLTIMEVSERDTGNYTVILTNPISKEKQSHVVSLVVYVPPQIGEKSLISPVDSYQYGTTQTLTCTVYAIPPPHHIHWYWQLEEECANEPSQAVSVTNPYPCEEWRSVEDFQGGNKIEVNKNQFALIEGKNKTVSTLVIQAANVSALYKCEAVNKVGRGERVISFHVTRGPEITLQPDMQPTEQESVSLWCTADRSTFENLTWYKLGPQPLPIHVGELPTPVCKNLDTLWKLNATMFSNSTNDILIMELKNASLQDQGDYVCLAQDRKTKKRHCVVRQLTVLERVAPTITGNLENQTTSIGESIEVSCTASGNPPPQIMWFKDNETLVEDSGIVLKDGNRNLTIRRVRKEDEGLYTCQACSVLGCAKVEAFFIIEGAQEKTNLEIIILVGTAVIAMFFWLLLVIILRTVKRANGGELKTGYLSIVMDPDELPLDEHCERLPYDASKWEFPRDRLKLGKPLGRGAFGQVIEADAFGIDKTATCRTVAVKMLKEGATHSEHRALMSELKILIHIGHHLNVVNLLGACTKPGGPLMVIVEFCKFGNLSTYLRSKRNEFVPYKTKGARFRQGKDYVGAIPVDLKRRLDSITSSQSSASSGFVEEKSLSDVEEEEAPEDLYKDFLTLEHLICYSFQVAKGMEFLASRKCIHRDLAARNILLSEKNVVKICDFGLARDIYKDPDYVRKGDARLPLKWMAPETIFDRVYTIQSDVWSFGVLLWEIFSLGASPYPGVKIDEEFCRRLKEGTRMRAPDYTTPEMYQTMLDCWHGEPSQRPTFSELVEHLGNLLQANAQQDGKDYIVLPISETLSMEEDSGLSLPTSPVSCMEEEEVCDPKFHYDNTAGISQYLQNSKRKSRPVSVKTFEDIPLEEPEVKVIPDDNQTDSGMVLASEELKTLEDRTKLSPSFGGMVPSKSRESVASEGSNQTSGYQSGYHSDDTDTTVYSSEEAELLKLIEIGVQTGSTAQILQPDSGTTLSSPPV
Protocol: Phosphorylation of the receptors MET, AXL, VEGFR2, and FLT3 was assessed in the transgenic human MKN45 gastric tumor cell line overexpressing MET, mouse embryonic fibroblasts (MEFs) expressing full-length human AXL (AXL-MEFs), human umbilical vein endothelial cells (HUVECs) […], and MEFs expressing full-length human FLT3 (FLT3-wt-MEFs), respectively. […] Then, HUVECs and FLT3-wt-MEFs were stimulated with the ligands VEGF-A (100 ng/ml, for 3 min) and FLT3-ligand (50 ng/ml, for 5 min). MKN45 (overexpressing MET) and AXL-MEFs cells had no stimulation. Cells treated with staurosporine (AXL, FLT3-wt, c-Kit, FLT3, TIE2, VEGF-R2; [1,0E-05 M]) or BMS777607 (MET; [1,0E-06 M]) or sunitinib (VEGF-R3; [1,0E-06 M]) or crizotinib (RON; [1,0E-05 M] were defined as low control (n = 8). The median value of those wells represented the background and was set to 0%. Cells treated with solvent alone were defined as high control (n = 8). The median value of those wells was set to 100%. Test sample-treated cells as well as high and low control were stimulated in identical manner. Quantification of receptor tyrosine kinase autophosphorylation was assessed in 96-well plates via sandwich ELISA using a receptor specific capture antibody and an anti-phosphotyrosine detection antibody. […]

[5] = target: C-KIT (Homo sapiens, UniProt P10721); experiment: Kinase inhibition assay (LANCE or HTRF); type: biochemical; conditions: ATP at Km
Sequence of C-KIT (P10721 26-976): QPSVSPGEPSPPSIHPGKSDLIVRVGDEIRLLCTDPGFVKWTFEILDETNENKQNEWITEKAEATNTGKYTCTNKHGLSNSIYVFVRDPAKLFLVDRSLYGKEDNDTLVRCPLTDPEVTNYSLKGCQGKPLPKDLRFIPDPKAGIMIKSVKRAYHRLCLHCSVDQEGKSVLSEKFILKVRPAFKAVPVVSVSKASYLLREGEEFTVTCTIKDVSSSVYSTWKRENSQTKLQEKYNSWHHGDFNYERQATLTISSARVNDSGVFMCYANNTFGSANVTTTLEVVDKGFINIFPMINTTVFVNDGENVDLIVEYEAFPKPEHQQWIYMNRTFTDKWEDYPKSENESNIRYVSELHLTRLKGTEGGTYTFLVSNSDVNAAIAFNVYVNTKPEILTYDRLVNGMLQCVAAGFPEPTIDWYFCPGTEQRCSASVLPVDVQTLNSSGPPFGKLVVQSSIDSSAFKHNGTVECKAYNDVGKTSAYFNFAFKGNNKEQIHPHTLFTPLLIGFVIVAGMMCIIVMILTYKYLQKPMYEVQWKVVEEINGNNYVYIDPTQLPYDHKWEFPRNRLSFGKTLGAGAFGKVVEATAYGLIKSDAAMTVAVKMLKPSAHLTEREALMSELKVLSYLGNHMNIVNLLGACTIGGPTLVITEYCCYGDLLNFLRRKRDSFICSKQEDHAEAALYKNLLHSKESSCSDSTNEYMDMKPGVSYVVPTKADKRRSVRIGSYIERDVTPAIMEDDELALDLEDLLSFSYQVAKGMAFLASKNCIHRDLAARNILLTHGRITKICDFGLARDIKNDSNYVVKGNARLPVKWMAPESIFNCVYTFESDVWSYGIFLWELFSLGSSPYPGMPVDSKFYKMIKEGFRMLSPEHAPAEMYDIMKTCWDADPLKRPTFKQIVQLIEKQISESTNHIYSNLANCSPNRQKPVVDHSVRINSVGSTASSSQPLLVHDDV
Protocol: as §1

Sequence of LnyA (P07948 whole entry): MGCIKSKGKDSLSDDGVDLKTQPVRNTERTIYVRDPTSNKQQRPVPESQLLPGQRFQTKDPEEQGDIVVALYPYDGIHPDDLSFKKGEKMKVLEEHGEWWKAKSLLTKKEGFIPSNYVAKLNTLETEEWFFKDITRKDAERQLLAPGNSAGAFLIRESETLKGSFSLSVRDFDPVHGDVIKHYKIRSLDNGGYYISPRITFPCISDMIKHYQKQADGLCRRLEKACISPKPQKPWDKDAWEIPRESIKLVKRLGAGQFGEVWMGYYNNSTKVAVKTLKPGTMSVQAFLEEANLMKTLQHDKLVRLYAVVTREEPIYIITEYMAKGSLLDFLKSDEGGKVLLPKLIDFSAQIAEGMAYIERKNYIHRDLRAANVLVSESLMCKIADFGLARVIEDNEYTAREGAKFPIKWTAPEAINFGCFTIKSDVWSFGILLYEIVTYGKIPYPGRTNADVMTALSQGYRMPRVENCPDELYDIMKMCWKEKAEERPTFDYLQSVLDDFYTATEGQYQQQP

In the case of Cc1c(C(=O)Nc2ccc(Oc3ccnc4cc(OCC(C)(C)O)ccc34)c(F)c2)c(=O)n(-c2ccccc2)n1C [CT053], the IC50 [1] is reported as 240 nM, the IC50 ([2]; read-out: IC50, percentage area of tube formation (+ HGF)) is reported as 310 nM and the IC90 ([2]; read-out: IC90, Tube Area % Effect (+ HGF)) is reported as over 3000 nM. For the same compound, the IC50 [3] was 140 nM, the IC50 ([4]; HUVECs, VEGF-A 100 ng/ml, read-out: IC50, phosphorylation of VEGFR2) was 1.1 nM and the IC50 ([4]; printed in Figure 1E, read-out: phospho-VEGF-R2: IC50) was 1.1 nM. It also gave an IC50 [5] of 960 nM.
